# Reference: patent publication US20130310256A1, “HERBICIDAL COMPOSITIONS COMPRISING 4-AMINO-3-CHLORO-5-FLUORO-6-(4-CHLORO-2-FLUORO-3-METHOXYPHENYL) PYRIDINE-2-CARBOXYLIC ACID OR A DERIVATIVE THEREOF AND VLCFA AND LIPID SYNTHESIS INHIBITING HERBICIDES” (DOW AGROSCIENCES LLC, priority 2008, published 2013)
# Experiments:
# [1] = tested on: BRAPP; experiment: Example I: postemergence foliar-applied weed control, direct seeded rice weeds, greenhouse; format: in vivo; details: foliar
# Text: (§1) Seeds or nutlets of the desired test plant species were planted in a soil matrix prepared by mixing a loam or sandy loam soil (e.g., 28.6 percent silt, 18.8 percent clay, and 52.6 percent sand, with a pH of about 5.8 and an organic matter content of about 1.8 percent) and calcareous grit in an 80 to 20 ratio. The soil matrix was contained in plastic pots with a volume of 1 quart and a surface area of 83.6 square centimeters (cm^2). When required to ensure good germination and healthy plants, a fungicide treatment and/or other chemical or physical treatment was applied. The plants were grown for 8-22 days in a greenhouse with an approximate 14 hr photoperiod which was maintained at about 29° C. during the day and 26° C. during the night. Nutrients (Peters Excel® 15-5-15 5-Ca 2-Mg and iron chelate) were applied in the irrigation solution as needed and water was added on a regular basis. Supplemental lighting was provided with overhead metal halide 1000-Watt lamps as necessary. The plants were employed for testing when they reached the first through fourth true leaf stage.
# (§2) Treatments consisted of the acid or esters of 4-amino-3-chloro-5-fluoro-6-(4-chloro-2-fluoro-3-methoxy-phenyl)pyridine-2-carboxylic acid (Compound A), each formulated as an SC (suspension concentrate), and various herbicidal components alone and in combination. Forms of compound A were applied on an acid equivalent basis.
# (§3) Other herbicidal components were applied on an active ingredient basis and included very long chain fatty acid (VLCFA) synthesis-inhibiting and fatty acid/lipid synthesis-inhibiting herbicides acetochlor (technical grade material), acetochlor+dichlormid formulated as Topnotch®, pretilachlor (technical grade material), butachlor formulated as Butachlor EC, fentrazamide formulated as Fentrazamide EC, thiobencarb formulated as Bolero® 8EC, cafenstrole formulated as Himeadow® WP or Lapost® Flowable, benfuresate formulated as Full Shot®, dimethenamid-P formulated as Outlook®, indanofan (technical grade material), flufenacet formulated as Define® DF, mefenacet (technical grade material), S-metolachlor formulated as Dual® II Magnum, pethoxamid formulated as Successor® 600, and pyroxasulfone (technical grade material).
# (§4) Treatment requirements were calculated based upon the rates being tested, the concentration of active ingredient or acid equivalent in the formulation, and a 12 mL application volume at a rate of 187 L/ha.
# (§5) For treatments comprised of formulated compounds, measured amounts of compounds were placed individually in 25 mL glass vials and diluted in a volume of 1.25% (v/v) Agri-Dex® crop oil concentrated to obtain 12× stock solutions. […] Application solutions were prepared by adding an appropriate amount of each stock solution (e.g., 1 mL) and diluted to the appropriate final concentrations with the addition of 10 mL of an aqueous mixture of 1.25% (v/v) crop oil concentrate so that the final spray solutions contained 1.25+/−0.05% (v/v) crop oil concentrate.
# (§6) For treatments comprised of technical compounds, weighed amounts can be placed individually in 25 mL glass vials and dissolved in a volume of 97:3 v/v acetone/DMSO to obtain 12× stock solutions. […] Application solutions can be prepared by adding an appropriate amount of each stock solution (e.g., 1 mL) and diluted to the appropriate final concentrations with the addition of 10 mL of an aqueous mixture of 1.5% (v/v) crop oil concentrate so that the final spray solutions contain 1.25% (v/v) crop oil concentrate. When technical materials are used, the concentrated stock solutions can be added to the spray solutions so that the final acetone and DMSO concentrations of the application solutions are […], respectively. […]
# [2] = tested on: CHEAL; experiment: Example III: post-emergence foliar-applied weed control in cereal crops, greenhouse; format: in vivo, Chenopodium album L.; details: 21 DAA
# Description: (§7) Seeds of the desired test plant species were planted in Sun Gro MetroMix® 306 planting mixture, which typically has a pH of 6.0 to 6.8 and an organic matter content of about 30 percent, in plastic pots with a surface area of 103.2 square centimeters (cm^2). When required to ensure good germination and healthy plants, a fungicide treatment and/or other chemical or physical treatment was applied. The plants were grown for 7-36 days in a greenhouse with an approximate 14 hour photoperiod which was maintained at about 18° C. during the day and 17° C. during the night. Nutrients and water were added on a regular basis and supplemental lighting was provided with overhead metal halide 1000-Watt lamps as necessary. The plants were employed for testing when they reached the second or third true leaf stage.
# (§8) Treatments consisted of the benzyl ester of 4-amino-3-chloro-5-fluoro-6-(4-chloro-2-fluoro-3-methoxy-phenyl)pyridine-2-carboxylic acid (Compound A), formulated as an SC (suspension concentrate), and a second cereal herbicide alone and in combination.
# (§9) Measured aliquots of the benzyl ester of 4-amino-3-chloro-5-fluoro-6-(4-chloro-2-fluoro-3-methoxy-phenyl)pyridine-2-carboxylic acid (Compound A) were placed in 25 milliliter (mL) glass vials and diluted in a volume of 1.25% (v/v) Agri-dex crop oil concentrated to obtain stock solutions. Compound requirements are based upon a 12 mL application volume at a rate of 187 liters per hectare (L/ha). Spray solutions of the second cereal herbicide and experimental compound mixtures were prepared by adding the stock solutions to the appropriate amount of dilution solution to form 12 mL spray solution with active ingredients in two- and three-way combinations. Formulated compounds were applied to the plant material with an overhead Mandel track sprayer equipped with an 8002E nozzle calibrated to deliver 187 L/ha over an application area of 0.503 square meters (m^2) at a spray height of 18 inches (46 cm) above average plant canopy. Control plants were sprayed in the same manner with the solvent blank.
# (§10) The treated plants and control plants were placed in a greenhouse as described above and watered by sub-irrigation to prevent wash-off of the test compounds. After 20-22 days, the condition of the test plants as compared with that of the control plants was determined visually and scored on a scale of 0 to 100 percent where 0 corresponds to no injury and 100 corresponds to complete kill.
# (§11) Colby's equation was used to determine the herbicidal effects expected from the mixtures (Colby, S. R. 1967. Calculation of the synergistic and antagonistic response of herbicide combinations. Weeds 15:20-22.).
# [3] = tested on: CIRAR; experiment: as above; format: in vivo, Cirsium arvense (L.) Scop.; details: 21 DAA
# Description: as §7, §8, §9, §10, §11
# [4] = tested on: KCHSC; experiment: as above; format: in vivo, Kochia scoparia (L.) Schrad.; details: 21 DAA
# Description: as §7, §8, §9, §10, §11
# [5] = tested on: PAPRH; experiment: as above; format: in vivo, Papaver rhoeas L.; details: 21 DAA
# Description: as §7, §8, §9, §10, §11
# [6] = tested on: SASKR; experiment: as above; format: in vivo, Salsola tragus L.; details: 21 DAA
# Description: as §7, §8, §9, §10, §11
# [7] = tested on: SINAR; experiment: as above; format: in vivo, Sinapis arvensis L.; details: 21 DAA
# Description: as §7, §8, §9, §10, §11
# [8] = tested on: STEME; experiment: as above; format: in vivo, Stellaria media (L.) Vill.; details: 21 DAA
# Description: as §7, §8, §9, §10, §11
# [9] = tested on: LEFCH; experiment: Example I: postemergence foliar-applied weed control, greenhouse; format: in vivo, Leptochloa chinensis (L.) Nees (Chinese sprangletop); details: foliar
# Text: as §1, §2, §3, §4, §5, §6
# [10] = tested on: CYPIR; experiment: as above; format: in vivo, Cyperus iria L. (rice flatsedge); details: foliar
# Text: as §1, §2, §3, §4, §5, §6
# [11] = tested on: CYPES; experiment: as above; format: in vivo, Cyperus esculentus L. (yellow nutsedge)
# [12] = tested on: ECHCG; experiment: as above; format: in vivo, Echinochloa crus-galli (L.) Beauv. (barnyardgrass); details: foliar
# Text: as §1, §2, §3, §4, §5, §6
# [13] = tested on: IPOHE; experiment: Example IV: pre-emergence soil-applied weed control, greenhouse; format: in vivo, Ipomoea hederacea Jacq. (ivyleaf morningglory); details: 28 DAA
# Text: Seeds or nutlets of the desired test plant species were planted in a soil matrix prepared by mixing a loam soil (32 percent silt, 23 percent clay, and 45 percent sand, with a pH of about 6.5 and an organic matter content of about 1.9 percent) and calcareous grit in an 80 to 20 ratio. The soil matrix was contained in plastic pots with a volume of 1 quart and a surface area of 83.6 square centimeters (cm^2).
# as §2, with “benzyl ester” for “acid or esters”, “(compound A)” for “(Compound A), each”, “concentrate)” for “concentrate),”
# Other herbicidal components were applied on an active ingredient basis and included very long chain fatty acid (VLCFA) synthesis-inhibiting and fatty acid/lipid synthesis-inhibiting herbicides alachlor (technical grade material), dimethenamid-P formulated as Outlook®, and S-metolachlor formulated as Dual® II Magnum.
# as §4
# as §5, with “oil concentrate (COC)” for “oil concentrated”, “(v/v) COC” for “(v/v) crop oil concentrate”, “contained 1.25%” for “contained 1.25+/−0.05%”, “(v/v) COC.” for “(v/v) crop oil concentrate.”
# For treatments comprised of technical compounds, weighed amounts can be placed individually in 25 mL glass vials and dissolved in a volume of 97:3 (v/v) acetone/DMSO to obtain 12× stock solutions. […] Application solutions can be prepared by adding an appropriate amount of each stock solution (e.g., 1 mL) and diluted to the appropriate final concentrations with the addition of 10 mL of an aqueous mixture of 1.5% (v/v) COC so that the final spray solutions contain 1.25% (v/v) COC. When technical materials are used, the concentrated stock solutions can be added to the spray solutions so that the final acetone and DMSO concentrations of the application solutions are 16.2% and 0.5%, respectively.
# For treatments comprised of formulated and technical compounds, weighed amounts of the technical materials were placed individually in 25 mL glass vials and dissolved in a volume of 97:3 (v/v) acetone/DMSO to obtain 12× stock solutions, and measured amounts of the formulated compounds were placed individually in 25 mL glass vials and diluted in a volume of 1.5% (v/v) COC or water to obtain 12× stock solutions. […] Application solutions were prepared by adding an appropriate amount of each stock solution (e.g., 1 mL) and diluted to the appropriate final concentrations with the addition of an appropriate amount of an aqueous mixture of 1.5% (v/v) COC so that the final spray solutions contained 1.25% (v/v) COC. As required, additional water and/or 97:3 (v/v) acetone/DMSO was added to individual application solutions so that the final acetone and DMSO concentrations of the application solutions being compared were 8.1% and 0.25%, respectively.
# All stock solutions and applications solutions were visually inspected for compound compatibility prior to application. Spray solutions were applied to the soil with an overhead Mandel track sprayer equipped with a 8002E nozzles calibrated to deliver 187 L/ha over an application area of 0.503 m^2 at a spray height of 18 inches (46 cm) above average pot height. Control pots were sprayed in the same manner with the solvent blank.
# The treated and control pots were placed in a greenhouse and top watered as needed. […]
smiles,measurement,setting,value
"CC(C)N(C(=O)COc1nnc(C(F)(F)F)s1)c1ccc(F)cc1 [Flufenacet, N-(4-fluorophenyl)-N-(1-methylethyl)-2-[[5-(trifluoromethyl)-1,3,4-thiadiazol-2-yl]oxy]acetamide]",Visual Weed Control (%) - 22 DAA BRAPP Obs,[1]; 187.5 gai/ha,10%
same,Visual Weed Control (%) - 22 DAA BRAPP Obs,[1]; 375 gai/ha,20%
same,Visual Weed Control (%) - 22 DAA BRAPP Obs,[1]; 750 gai/ha,40%
same,Visual Weed Control CHEAL Obs,[2]; 60 gai/ha,0%
same,Visual Weed Control CHEAL Obs,[2]; 120 gai/ha,0%
same,Visual Weed Control CIRAR Obs,[3]; 60 gai/ha,0%
same,Visual Weed Control CIRAR Obs,[3]; 120 gai/ha,0%
same,Visual Weed Control CIRAR Obs,[3]; 240 gai/ha,17%
same,Visual Weed Control KCHSC Obs,[4]; 60 gai/ha,5%
same,Visual Weed Control KCHSC Obs,[4]; 120 gai/ha,5%
same,Visual Weed Control KCHSC Obs,[4]; 240 gai/ha,17%
same,Visual Weed Control PAPRH Obs,[5]; 60 gai/ha,0%
same,Visual Weed Control PAPRH Obs,[5]; 120 gai/ha,5%
same,Visual Weed Control PAPRH Obs,[5]; 240 gai/ha,7%
same,Visual Weed Control SASKR Obs,[6]; 60 gai/ha,5%
same,Visual Weed Control SASKR Obs,[6]; 120 gai/ha,5%
same,Visual Weed Control SASKR Obs,[6]; 240 gai/ha,13%
same,Visual Weed Control SINAR Obs,[7]; 60 gai/ha,5%
same,Visual Weed Control SINAR Obs,[7]; 120 gai/ha,8%
same,Visual Weed Control STEME Obs,[8]; 60 gai/ha,0%
same,Visual Weed Control STEME Obs,[8]; 120 gai/ha,5%
same,Visual Weed Control STEME Obs,[8]; 240 gai/ha,42%
"CCOCCN(C(=O)CCl)C(=C(C)C)c1ccccc1 [Pethoxamid, 2-Chloro-N-(2-ethoxyethyl)-N-(2-methyl-1-phenyl-1-propen-1-yl)acetamide]",Visual Weed Control (%) - 21 DAA LEFCH Obs,[9]; 305 gai/ha,10%
same,Visual Weed Control (%) - 21 DAA LEFCH Obs,[9]; 610 gai/ha,10%
same,Visual Weed Control (%) - 21 DAA CYPIR Obs,[10]; 305 gai/ha,40%
same,Visual Weed Control (%) - 21 DAA CYPIR Obs,[10]; 610 gai/ha,80%
same,Visual Weed Control (%) - 21 DAA CYPIR Obs,[10]; 1220 gai/ha,85%
same,Visual Weed Control (%) - 21 DAA CYPES Obs,[11]; 305 gai/ha,0%
same,Visual Weed Control (%) - 21 DAA CYPES Obs,[11]; 610 gai/ha,25%
same,Visual Weed Control (%) - 21 DAA CYPES Obs,[11]; 1220 gai/ha,65%
CCc1cccc(C)c1N(C(=O)CCl)C(C)COC (centres unmarked) [S-Metolachlor],Visual Weed Control (%) - 20 DAA ECHCG Obs,[12]; 387.5 gai/ha,20%
same,Visual Weed Control (%) - 20 DAA ECHCG Obs,[12]; 775 gai/ha,55%
same,Visual Weed Control IPOHE Obs,[13]; 387.5 gai/ha,25%
same,Visual Weed Control IPOHE Obs,[13]; 775 gai/ha,0%
same,Visual Weed Control IPOHE Obs,[13]; 1550 gai/ha,33%
